Source: US20220056043A1, “NITROGEN-CONTAINING FUSED CYCLIC COMPOUND, PREPARATION METHOD THEREFOR AND USE THEREOF” (SICHUAN KELUN-BIOTECH BIOPHARMACEUTICAL CO., LTD., priority 2019, published 2022)
Where a name gives a salt, the structure may show the parent alone.

Legend:
THP1-defNLRP3 cells = test: Agonistic effect on the expression of IL-1β in NLRP3 deficient THP1 cells (THP1-defNLRP3) after PMA-induced differentiation (HTRF); format: cell-based, human; conditions: Homo sapiens, THP-1; IL-1β level, PMA-differentiated NLRP3 deficient THP1 cells, 6 hours; highest test concentration 30 μM; read-out: hNLRP3 EC50 (μM) (THP-1defNLRP3)
From the text: Experimental Example 2: Agonistic Effect of the Compound of the Invention on the Expression of IL-1β in NLRP3 Deficient THP1 Cells (THP1-defNLRP3 Cells) after PMA-Induced Differentiation
In this test, a HTRF detection method was used to test the effect of the compound of the invention on the level of IL-1β in THP1-defNLRP3 cells to evaluate the specificity of the agonistic effect of the compound on hNLRP3 inflammasome or hNLRP3 inflammasome pathway.
Reagents: as described in Experimental Example 1
Cell: THP1-defNLRP3 (InvivoGen)
Kit: IL-1β assay kit (CISBIO)
1) THP1-defNLRP3 cells in a logarithmic growth phase were seeded in a T75 culture flask at a density of 5×10^5 cells/well, and cultured in a cell incubator at 37° C., 5% CO2 for 24 hours, and then 1 μM PMA was used to induce THP1-defNLRP3 suspension cells to become adherent macrophages. The medium was RPMI 1640 containing 10% heat-inactivated FBS and 0.05 mM β-mercaptoethanol.
2) The cells were induced and cultured for 24 hours. Then the adherent cells were trypsinized and centrifuged at 1000 rpm for 5 min. The supernatant was removed, and the cells were resuspended to a density of 2×10^6 cells/mL in RPMI 1640 medium containing 2% heat-inactivated FBS. 50 μL/well of the cell resuspension was taken and spread on a 96-well plate such that the number of cells in each well was 1×10^5.
3) An appropriate amount of 10 mM DMSO solution of the compound to be tested was taken and diluted to a concentration of 2× test concentration with RPMI 1640 medium containing 2% heat-inactivated FBS. 50 μL/well of the dilution was added to the cells in the 96-well plate, and mixed well. The plate was incubated in a cell incubator at 37° C., 5% CO2 for 6 hours. The supernatant was collected, and the level of IL-1β was measured in accordance with the instructions of the IL-1β detection kit.
4) EC50 was fitted by the GraphPad software log(agonist) vs. response—Variable slope four-parameter method.

hTLR8 = target: T1, hTLR8 (Homo sapiens, UniProt Q9NR97); test: Agonistic effect on hTLR8, HEK-Blue hTLR8 cells, alkaline phosphatase secretion; format: cell-based; conditions: 16 hours
T1 construct: host or cells: HEK-Blue hTLR8 cells
T1 sequence (Q9NR97 27-1041): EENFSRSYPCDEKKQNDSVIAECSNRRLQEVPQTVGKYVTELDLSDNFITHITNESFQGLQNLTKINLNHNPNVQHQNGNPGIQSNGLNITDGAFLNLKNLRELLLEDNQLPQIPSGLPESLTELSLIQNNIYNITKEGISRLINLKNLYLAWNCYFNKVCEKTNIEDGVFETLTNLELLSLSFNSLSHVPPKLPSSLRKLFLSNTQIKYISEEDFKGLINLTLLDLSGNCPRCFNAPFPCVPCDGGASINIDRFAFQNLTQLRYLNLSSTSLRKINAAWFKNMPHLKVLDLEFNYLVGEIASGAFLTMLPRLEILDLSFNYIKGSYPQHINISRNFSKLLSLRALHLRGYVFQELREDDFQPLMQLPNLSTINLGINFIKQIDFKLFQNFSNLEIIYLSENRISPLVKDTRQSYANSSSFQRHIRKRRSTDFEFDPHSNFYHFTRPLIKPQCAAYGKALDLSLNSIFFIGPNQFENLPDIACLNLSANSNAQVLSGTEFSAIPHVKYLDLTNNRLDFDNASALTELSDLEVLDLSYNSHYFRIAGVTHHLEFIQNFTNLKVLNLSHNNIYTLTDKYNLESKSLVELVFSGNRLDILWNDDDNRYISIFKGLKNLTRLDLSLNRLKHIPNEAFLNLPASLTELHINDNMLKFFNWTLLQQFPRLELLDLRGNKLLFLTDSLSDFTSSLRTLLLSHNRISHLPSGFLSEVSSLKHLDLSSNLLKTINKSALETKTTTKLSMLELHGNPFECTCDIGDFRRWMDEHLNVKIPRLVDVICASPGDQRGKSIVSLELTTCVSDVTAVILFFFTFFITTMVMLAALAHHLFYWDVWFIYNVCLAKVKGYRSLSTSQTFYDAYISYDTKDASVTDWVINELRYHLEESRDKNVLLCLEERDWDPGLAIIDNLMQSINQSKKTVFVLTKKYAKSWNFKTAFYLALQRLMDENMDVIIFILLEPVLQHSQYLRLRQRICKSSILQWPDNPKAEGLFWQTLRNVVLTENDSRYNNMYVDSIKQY
Procedure: Experimental Example 4: Agonistic Effect of the Compound of the Invention on hTLR8
In this test, the secretion of alkaline phosphatase in HEK-Blue cells was measured to test the activating effect of the compound of the invention on TLR8 signaling pathway, so as to evaluate the specificity of the agonistic effect of the compound on NLRP3 pathway.
Reagents: DMEM (High glucose); FBS (fetal bovine serum) (Gibco); QUANTI-Blue/InvivoGen/rep-qb2
Cells: HEK-Blue™ hTLR8 cells (human TLR 8 cells) (InvivoGen) Experimental Procedures:
1) The HEK-Blue™ hTLR8 cells in a logarithmic growth phase were trypsinized and resuspended in the medium to a concentration of 2×10^6 cells/mL. 50 μL/well of the cell suspension was added to a 96-well plate. An appropriate amount of 10 mM DMSO solution of the compound to be tested was taken and diluted to a concentration of 2× test concentration with the medium. 50 μL/well was added to the cells in the 96-well plate. The plate was incubated in an incubator at 37° C. and 5% CO2 for 16 hours. The medium was DMEM (High glucose) containing 10% FBS. 2) After the cell incubation, 10 μL of cell culture supernatant was transferred to a 96-well plate. 90 μL/well of QUANTI-Blue detection solution was added, and the mixture was incubated at 37° C. for 3 hours. OD620 was read using a microplate reader.
3) The EC50 of the effect of the tested compound to stimulate hTLR8 was fitted by the GraphPad software log(agonist) vs. response—Variable slope four-parameter method.

`Nc1cc(N2CC[C@@H](O)C2)c2sc(-c3ccn[nH]3)cc2n1` [Compound 181] was tested, and the EC50 (THP1-defNLRP3 cells) was over 30 µM and the EC50 (hTLR8) was over 100 µM.
`CN(CCNc1cc(N)nc2cc(-c3ccn[nH]3)sc12)C(=O)C1CC1` [Compound 75, N-(2-((5-amino-2-(1H-pyrazol-5-yl)thieno[3,2-b]pyridin-7-yl)amino)ethyl)-N-methylcyclopropionamide] showed an EC50 (THP1-defNLRP3 cells) of over 30 µM and an EC50 (hTLR8) of over 100 µM.
`CC1CN(CCNc2cc(N)nc3cc(-c4ccn[nH]4)sc23)CC(C)O1` (stereo not shown) [Compound 62] was tested, and the EC50 (THP1-defNLRP3 cells) was over 30 µM and the EC50 (hTLR8) was over 100 µM.
Work on `CC1(O)CCN(CCCNc2cc(N)nc3cc(-c4ccn[nH]4)sc23)CC1` [Compound 99, 1-(3-((5-amino-2-(1H-pyrazol-5-yl)thieno[3,2-b]pyridin-7-yl)amino)propyl)-4-methylpiperidine-4-ol] yielded an EC50 (THP1-defNLRP3 cells) of over 30 µM and an EC50 (hTLR8) of over 100 µM.
For `Cn1cnc(CNc2cc(N)nc3cc(-c4ccn[nH]4)sc23)c1` [Compound 63, N^7-(1-methyl-1H-imidazol-4-yl)methyl-2-(1H-pyrazol-5-yl)thieno[3,2-b]pyridine-5,7-diamine], the EC50 (THP1-defNLRP3 cells) was over 30 µM and the EC50 (hTLR8) was over 100 µM.
For `Nc1cc(NCC2CCOCC2)c2sc(-c3ccn[nH]3)cc2n1` [Compound 120, 2-(1H-pyrazol-5-yl)-N^7-((tetrahydro-2H-pyran-4-yl)methyl)thieno[3,2-b]pyridine-5,7-diamine], the EC50 (THP1-defNLRP3 cells) was over 30 µM and the EC50 (hTLR8) was over 100 µM.
Work on `Nc1cc(N2CCN(C=O)CC2)c2sc(-c3ccn[nH]3)cc2n1` [Compound 178] yielded an EC50 (THP1-defNLRP3 cells) of over 30 µM and an EC50 (hTLR8) of over 100 µM.
`Nc1cc(NC2CCOC2)c2sc(-c3ccn[nH]3)cc2n1` (stereo not shown) [Compound 61, 2-(1H-pyrazol-5-yl)-N^7-(tetrahydrofuran-3-yl)thieno[3,2-b]pyridine-5,7-diamine] was tested, and the EC50 (THP1-defNLRP3 cells) was over 30 µM and the EC50 (hTLR8) was over 100 µM.
With `Cc1c(-c2ccn[nH]2)sc2c(NC[C@@H]3CCCO3)cc(N)nc12` [Compound 157] the EC50 (THP1-defNLRP3 cells) was over 30 µM and the EC50 (hTLR8) was over 100 µM.
For `C[C@H](O)CNc1cc(N)nc2cc(-c3ccn[nH]3)sc12` [Compound 33], the EC50 (THP1-defNLRP3 cells) was over 30 µM and the EC50 (hTLR8) was over 100 µM.
`CC[C@H](CO)Nc1cc(N)nc2cc(-c3ccn[nH]3)sc12` [Compound 95, (R)-2-((5-amino-2-(1H-pyrazol-5-yl)thieno[3,2-b]pyridin-7-yl)amino)butanol] was tested, and the EC50 (THP1-defNLRP3 cells) was over 30 µM and the EC50 (hTLR8) was over 100 µM.
`Nc1cc(N[C@H]2C[C@H]2CO)c2sc(-c3ccn[nH]3)cc2n1` [Compound 182s] gave an EC50 (THP1-defNLRP3 cells) of over 30 µM and an EC50 (hTLR8) of over 100 µM.
Compound `Nc1cc(N[C@@H]2CC[C@@H](O)C2)c2sc(-c3ccn[nH]3)cc2n1` [Compound 30s, (1R,3R)-3-((5-amino-2-(1H-pyrazol-5-yl)thieno[3,2-b]pyridin-7-yl)amino)cyclopentanol hydrochloride] has an EC50 (THP1-defNLRP3 cells) of over 30 µM and an EC50 (hTLR8) of over 100 µM.
With `Nc1cc(NC2COC2)c2sc(-c3ccn[nH]3)cc2n1` [Compound 112, N^7-(oxetan-3-yl)-2-(1H-pyrazol-5-yl)thieno[3,2-b]pyridine-5,7-diamine] the EC50 (THP1-defNLRP3 cells) was over 30 µM and the EC50 (hTLR8) was over 100 µM.
`CC1(C)CCN(c2cc(N)nc3cc(-c4ccn[nH]4)sc23)CC1` [Compound 173] gave an EC50 (THP1-defNLRP3 cells) of over 30 µM and an EC50 (hTLR8) of over 100 µM.
In the case of `Nc1cc(NC2CCC(O)CC2)c2sc(-c3ccn[nH]3)cc2n1` (stereo not shown) [Compound 114, 4-((5-amino-2-(1H-pyrazol-5-yl)thieno[3,2-b]pyridin-7-yl)amino)-1-cyclohexanol], the EC50 (THP1-defNLRP3 cells) is reported as over 30 µM and the EC50 (hTLR8) is reported as over 100 µM.
`Nc1cc(NC2CCCC2)c2sc(-c3ccn[nH]3)cc2n1` [Compound 110, N^7-cyclopentyl-2-(1H-pyrazol-5-yl)thieno[3,2-b]pyridine-5,7-diamine] showed an EC50 (THP1-defNLRP3 cells) of over 30 µM and an EC50 (hTLR8) of over 100 µM.
`COCCNc1cc(N)nc2cc(-c3ccn[nH]3)sc12` [Compound 100, N^7-(2-methoxyethyl)-2-(1H-pyrazol-5-yl)thieno[3,2-b]pyridine-5,7-diamine] gave an EC50 (THP1-defNLRP3 cells) of over 30 µM and an EC50 (hTLR8) of over 100 µM.
With `Nc1cc(N2CCNCC2)c2sc(-c3ccn[nH]3)cc2n1` [Compound 175] the EC50 (THP1-defNLRP3 cells) was over 30 µM and the EC50 (hTLR8) was over 100 µM.
`Nc1cc(NCC2CC2)c2sc(-c3ccn[nH]3)cc2n1` [Compound 102, N^7-(cyclopropylmethyl)-2-(1H-pyrazol-5-yl)thieno[3,2-b]pyridine-5,7-diamine] was tested, and the EC50 (THP1-defNLRP3 cells) was over 30 µM and the EC50 (hTLR8) was over 100 µM.
Compound `Nc1cc(N2CCN(C3CC3)CC2)c2sc(-c3ccn[nH]3)cc2n1` [Compound 163] has an EC50 (THP1-defNLRP3 cells) of over 30 µM and an EC50 (hTLR8) of over 100 µM.
`CC(C)(CO)CNc1cc(N)nc2cc(-c3ccn[nH]3)sc12` [Compound 115, 3-((5-amino-2-(1H-pyrazol-5-yl)thieno[3,2-b]pyridin-7-yl)amino)-2,2-dimethyl-1-propanol] showed an EC50 (THP1-defNLRP3 cells) of over 30 µM and an EC50 (hTLR8) of over 100 µM.
In the case of `COC1(C)CCN(c2cc(N)nc3cc(-c4ccn[nH]4)sc23)CC1` [Compound 165], the EC50 (THP1-defNLRP3 cells) is reported as over 30 µM and the EC50 (hTLR8) is reported as over 100 µM.
`CC(=O)N(C)CCCNc1cc(N)nc2cc(-c3ccn[nH]3)sc12` [Compound 74, N-(3-((5-amino-2-(1H-pyrazol-5-yl)thieno[3,2-b]pyridin-7-yl)amino)propyl)-N-methylacetamide] gave an EC50 (THP1-defNLRP3 cells) of over 30 µM and an EC50 (hTLR8) of over 100 µM.
`Nc1cc(N[C@@H]2CC[C@H](O)C2)c2sc(-c3ccn[nH]3)cc2n1` [Compound 31, (1S,3R)-3-((5-amino-2-(1H-pyrazol-5-yl)thieno[3,2-b]pyridin-7-yl)amino)cyclopentanol] gave an EC50 (THP1-defNLRP3 cells) of over 30 µM and an EC50 (hTLR8) of over 100 µM.
Work on `Cn1cc(-c2cc3nc(N)cc(NCCCO)c3s2)cn1` [Compound 109, 3-((5-amino-2-(1-methyl-1H-pyrazol-4-yl)thieno[3,2-b]pyridin-7-yl)amino)-1-propanol] yielded an EC50 (THP1-defNLRP3 cells) of over 30 µM and an EC50 (hTLR8) of over 100 µM.
Work on `Cc1c(-c2cc[nH]n2)sc2c(NCCCO)cc(N)nc12` [Compound 159] yielded an EC50 (THP1-defNLRP3 cells) of over 30 µM and an EC50 (hTLR8) of over 100 µM.
`Cn1ccc(CNc2cc(N)nc3cc(-c4ccn[nH]4)sc23)n1` [Compound 60, N^7-(1-methyl-1H-pyrazol-3-yl)methyl-2-(1H-pyrazol-5-yl)thieno[3,2-b]pyridine-5,7-diamine] showed an EC50 (THP1-defNLRP3 cells) of over 30 µM and an EC50 (hTLR8) of over 100 µM.
In the case of `CC(CO)(CO)CNc1cc(N)nc2cc(-c3ccn[nH]3)sc12` [Compound 122], the EC50 (THP1-defNLRP3 cells) is reported as over 30 µM and the EC50 (hTLR8) is reported as over 100 µM.
